What is called IC50 is the point on the concentration scale where inhibition reaches its midpoint. One may read the inhibition as how much of the control response was suppressed. Read a high inhibition as strong suppression. The ΔTm is the shift of the melting midpoint relative to a reference.

Each structure is given as a SMILES string.

A short description of series [1]: Permeability of compound at 10 uM by PAMPA assay. Type of series: ADME. The settings on record: read-out: permeability. (In PAMPA a lipid-coated filter parts donor from acceptor wells.)
Series [2] addresses T1, Bromodomain-containing protein 4 (Homo sapiens, UniProt O60885). Kind of series: Displacement of tetra-acetylated histone H4 peptide (1-21) from recombinant human N-terminal His-tagged BRD4 BD1 (44 to 170 residues) expressed in Escherichia coli incubated for 30 mins followed by further incubation with tetra-acetylated histone H4 peptide (1-21) for 30 mins by Alphascreen assay. Background: In Alpha technology, singlet oxygen from a donor bead excites a nearby acceptor bead.

Series [3] concerns RAW264.7. Kind of series: Inhibition of LPS-induced NO overproduction in mouse RAW264.7 cells at 1 uM incubated for 2 hrs followed by LPS stimulation and measured after 22 hrs by Griess reagent based assay relative to control. As to conditions: Mus musculus, RAW264.7. Type of series: functional.
The target of series [4] is T1, Bromodomain-containing protein 4. Kind of series: Displacement of tetra-acetylated histone H4 peptide (1-21) from recombinant human N-terminal His-tagged BRD4 BD2 (349 to 460 residues) expressed in Escherichia coli incubated for 30 mins followed by further incubation with tetra-acetylated histone H4 peptide (1-21) for 30 mins by Alphascreen assay.
Series [5] shares this target. Kind of series: Displacement of tetra-acetylated histone H4 peptide (1-21) from recombinant human N-terminal His-tagged BRD4 BD1 (44 to 170 residues) expressed in Escherichia coli assessed as protein activity at 2 uM incubated for 30 mins followed by further incubation with tetra-acetylated histone H4 peptide (1-21) for 30 mins by Alphascreen assay.
The target is the same in series [6]. Put plainly: Binding affinity to recombinant human N-terminal His-tagged BRD4 BD1 (44 to 170 residues) expressed in Escherichia coli assessed as change in melting temperature at 10 uM by SYPRO Orange based differential scanning fluorimetry.
Series [7] has as its target Chromatin remodeling regulator CECR2 (Homo sapiens) (UniProt Q9BXF3). Put plainly: Binding affinity to CECR2 (unknown origin) assessed as change in melting temperature at 10 uM by SYPRO Orange based differential scanning fluorimetry. On the technique in general: In DSF a fluorescence change marks the thermal transition of the protein.
The target of series [8] is CREB-binding protein (Homo sapiens) (UniProt Q92793). Put plainly: Binding affinity to CREBBP (unknown origin) assessed as change in melting temperature at 10 uM by SYPRO Orange based differential scanning fluorimetry.
CREB-binding protein (Homo sapiens), sequence (Q92793 2-2442 limits assumed): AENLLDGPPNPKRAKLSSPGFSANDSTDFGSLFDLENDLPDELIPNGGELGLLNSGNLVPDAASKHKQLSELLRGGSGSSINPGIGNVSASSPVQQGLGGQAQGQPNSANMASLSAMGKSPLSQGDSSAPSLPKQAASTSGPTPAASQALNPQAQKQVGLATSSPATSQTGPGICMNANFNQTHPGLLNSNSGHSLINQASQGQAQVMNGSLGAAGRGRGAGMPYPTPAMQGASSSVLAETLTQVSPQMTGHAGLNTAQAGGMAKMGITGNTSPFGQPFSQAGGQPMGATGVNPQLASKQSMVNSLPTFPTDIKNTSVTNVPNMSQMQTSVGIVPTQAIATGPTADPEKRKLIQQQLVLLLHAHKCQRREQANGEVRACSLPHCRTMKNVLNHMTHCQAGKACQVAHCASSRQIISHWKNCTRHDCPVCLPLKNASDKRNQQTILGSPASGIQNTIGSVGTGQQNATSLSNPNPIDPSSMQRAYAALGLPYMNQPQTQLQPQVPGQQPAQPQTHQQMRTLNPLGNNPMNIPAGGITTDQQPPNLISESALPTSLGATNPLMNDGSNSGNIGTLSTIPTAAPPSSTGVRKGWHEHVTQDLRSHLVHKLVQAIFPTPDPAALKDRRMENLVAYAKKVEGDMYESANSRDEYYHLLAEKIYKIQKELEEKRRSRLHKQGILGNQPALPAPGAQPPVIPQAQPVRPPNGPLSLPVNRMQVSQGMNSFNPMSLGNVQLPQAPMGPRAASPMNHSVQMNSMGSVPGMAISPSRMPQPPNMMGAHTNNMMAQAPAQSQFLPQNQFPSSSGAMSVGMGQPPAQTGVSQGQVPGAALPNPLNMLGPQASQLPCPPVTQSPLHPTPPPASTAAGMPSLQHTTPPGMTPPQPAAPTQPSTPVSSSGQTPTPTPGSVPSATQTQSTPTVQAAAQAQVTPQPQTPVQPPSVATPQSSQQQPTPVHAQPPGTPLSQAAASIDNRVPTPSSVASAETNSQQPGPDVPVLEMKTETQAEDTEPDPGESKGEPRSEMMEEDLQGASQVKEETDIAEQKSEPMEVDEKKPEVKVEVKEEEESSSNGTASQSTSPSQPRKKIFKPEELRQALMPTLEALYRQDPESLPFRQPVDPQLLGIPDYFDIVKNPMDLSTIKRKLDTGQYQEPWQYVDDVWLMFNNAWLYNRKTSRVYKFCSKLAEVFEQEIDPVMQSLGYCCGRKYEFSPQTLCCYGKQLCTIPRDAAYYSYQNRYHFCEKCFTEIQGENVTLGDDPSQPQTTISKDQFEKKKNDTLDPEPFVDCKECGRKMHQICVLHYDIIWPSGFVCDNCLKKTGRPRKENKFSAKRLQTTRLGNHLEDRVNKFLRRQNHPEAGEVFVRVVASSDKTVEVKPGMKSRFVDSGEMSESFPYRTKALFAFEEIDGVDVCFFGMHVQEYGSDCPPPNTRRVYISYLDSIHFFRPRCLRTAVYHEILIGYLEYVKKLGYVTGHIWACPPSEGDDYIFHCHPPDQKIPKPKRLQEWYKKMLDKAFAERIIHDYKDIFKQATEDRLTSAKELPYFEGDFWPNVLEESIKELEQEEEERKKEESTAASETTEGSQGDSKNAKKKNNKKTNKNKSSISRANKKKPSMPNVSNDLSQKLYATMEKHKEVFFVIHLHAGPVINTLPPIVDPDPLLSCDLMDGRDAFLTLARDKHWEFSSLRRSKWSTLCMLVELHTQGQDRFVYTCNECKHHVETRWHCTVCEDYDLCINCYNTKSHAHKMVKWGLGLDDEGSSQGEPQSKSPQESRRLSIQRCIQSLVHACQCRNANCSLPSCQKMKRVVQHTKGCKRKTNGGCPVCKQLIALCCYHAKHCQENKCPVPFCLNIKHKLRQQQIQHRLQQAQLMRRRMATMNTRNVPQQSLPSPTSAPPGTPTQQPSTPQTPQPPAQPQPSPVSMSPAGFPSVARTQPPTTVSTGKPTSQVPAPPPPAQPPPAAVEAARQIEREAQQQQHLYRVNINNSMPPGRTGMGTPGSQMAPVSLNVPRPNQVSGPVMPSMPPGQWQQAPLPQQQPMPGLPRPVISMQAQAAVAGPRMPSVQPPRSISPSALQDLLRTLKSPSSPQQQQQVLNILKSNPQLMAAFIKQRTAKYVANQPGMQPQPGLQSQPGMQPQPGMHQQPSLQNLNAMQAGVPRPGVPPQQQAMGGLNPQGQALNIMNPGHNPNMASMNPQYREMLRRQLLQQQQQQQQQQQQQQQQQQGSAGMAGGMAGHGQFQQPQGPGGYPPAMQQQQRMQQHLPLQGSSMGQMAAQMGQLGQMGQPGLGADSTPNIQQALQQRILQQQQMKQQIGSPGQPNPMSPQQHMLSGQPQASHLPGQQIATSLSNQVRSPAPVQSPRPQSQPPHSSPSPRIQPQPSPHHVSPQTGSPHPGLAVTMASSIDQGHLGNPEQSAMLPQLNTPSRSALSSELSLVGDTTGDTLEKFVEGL
Series [9] deals with T2, Bromodomain-containing protein 9 (Homo sapiens) (UniProt Q9H8M2).
T2 sequence (whole entry): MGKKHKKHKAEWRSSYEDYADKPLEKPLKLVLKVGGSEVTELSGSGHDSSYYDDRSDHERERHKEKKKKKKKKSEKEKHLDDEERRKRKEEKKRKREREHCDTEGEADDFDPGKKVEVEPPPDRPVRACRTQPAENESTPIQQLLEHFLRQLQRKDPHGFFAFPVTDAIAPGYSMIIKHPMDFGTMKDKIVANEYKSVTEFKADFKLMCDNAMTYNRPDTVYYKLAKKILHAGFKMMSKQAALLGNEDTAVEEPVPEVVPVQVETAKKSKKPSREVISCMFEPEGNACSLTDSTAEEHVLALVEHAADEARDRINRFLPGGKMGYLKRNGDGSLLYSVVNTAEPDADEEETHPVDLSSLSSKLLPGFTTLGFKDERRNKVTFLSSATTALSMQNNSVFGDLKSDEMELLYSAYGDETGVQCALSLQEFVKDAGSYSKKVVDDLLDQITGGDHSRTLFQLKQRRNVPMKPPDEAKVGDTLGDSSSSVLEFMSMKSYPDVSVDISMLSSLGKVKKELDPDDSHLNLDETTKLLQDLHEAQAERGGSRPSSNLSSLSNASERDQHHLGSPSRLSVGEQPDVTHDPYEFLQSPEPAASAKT
Put plainly: Binding affinity to BRD9 BD1 (unknown origin) assessed as change in melting temperature at 10 uM by SYPRO Orange based differential scanning fluorimetry.

Chromatin remodeling regulator CECR2 (Homo sapiens), sequence (Q9BXF3 whole entry, looked up): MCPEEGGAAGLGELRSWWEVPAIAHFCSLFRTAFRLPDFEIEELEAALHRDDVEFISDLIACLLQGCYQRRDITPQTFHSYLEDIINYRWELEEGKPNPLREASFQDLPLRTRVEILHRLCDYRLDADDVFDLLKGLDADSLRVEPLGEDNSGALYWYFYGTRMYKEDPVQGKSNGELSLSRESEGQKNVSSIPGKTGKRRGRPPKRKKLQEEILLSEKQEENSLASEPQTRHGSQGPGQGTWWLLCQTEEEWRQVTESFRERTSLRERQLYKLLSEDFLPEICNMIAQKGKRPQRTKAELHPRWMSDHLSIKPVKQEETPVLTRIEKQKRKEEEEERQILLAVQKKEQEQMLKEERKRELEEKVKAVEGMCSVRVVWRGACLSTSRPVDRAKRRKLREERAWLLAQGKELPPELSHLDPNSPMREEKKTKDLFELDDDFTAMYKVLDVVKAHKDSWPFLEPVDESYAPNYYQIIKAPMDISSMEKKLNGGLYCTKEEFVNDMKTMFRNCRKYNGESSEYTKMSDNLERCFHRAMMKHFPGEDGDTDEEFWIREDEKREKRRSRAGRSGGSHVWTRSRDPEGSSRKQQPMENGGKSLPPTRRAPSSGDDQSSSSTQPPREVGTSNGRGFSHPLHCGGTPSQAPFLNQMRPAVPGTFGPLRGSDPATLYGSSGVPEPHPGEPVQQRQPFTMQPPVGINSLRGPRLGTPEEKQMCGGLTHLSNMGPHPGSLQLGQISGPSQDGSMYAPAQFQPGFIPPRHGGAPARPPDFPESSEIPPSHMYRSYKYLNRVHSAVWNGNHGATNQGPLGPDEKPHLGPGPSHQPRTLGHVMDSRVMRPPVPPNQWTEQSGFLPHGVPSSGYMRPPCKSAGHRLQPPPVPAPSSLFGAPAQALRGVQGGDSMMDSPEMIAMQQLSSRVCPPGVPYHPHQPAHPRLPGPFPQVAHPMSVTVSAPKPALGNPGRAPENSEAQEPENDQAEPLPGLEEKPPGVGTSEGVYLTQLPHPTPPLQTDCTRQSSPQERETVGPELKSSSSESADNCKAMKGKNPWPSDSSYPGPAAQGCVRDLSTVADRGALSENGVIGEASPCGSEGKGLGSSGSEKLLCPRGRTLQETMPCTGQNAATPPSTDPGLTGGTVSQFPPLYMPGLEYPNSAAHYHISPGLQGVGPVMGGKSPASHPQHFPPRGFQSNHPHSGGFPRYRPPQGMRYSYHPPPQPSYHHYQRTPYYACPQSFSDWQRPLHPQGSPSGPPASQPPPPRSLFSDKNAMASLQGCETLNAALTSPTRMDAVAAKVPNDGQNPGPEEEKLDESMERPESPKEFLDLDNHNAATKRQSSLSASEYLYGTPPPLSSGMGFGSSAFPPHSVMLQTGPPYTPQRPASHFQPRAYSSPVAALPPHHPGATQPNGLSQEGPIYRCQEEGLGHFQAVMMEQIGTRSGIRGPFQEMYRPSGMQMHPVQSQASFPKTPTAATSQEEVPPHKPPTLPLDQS

In the case of `COc1ccccc1S(=O)(=O)Nc1ccc2c3c(cc(-c4ccc(C)o4)cc13)C(=O)N2C`, in series [1], the Papp at 10 µM amounted to 0.006 ×10⁻⁶ cm/s. In addition, the results for the half-maximal inhibitory concentration (IC50) in [2] and in series [4] were 0.0548 µM and 47 µM, respectively. In addition, at 1 µM the inhibition in series [3] was 58.5%.

In the case of `COc1ccccc1S(=O)(=O)N(C)c1ccc2c3c(cccc13)C(=O)N2C`, the Activity in series [5] was 90.4%. The ΔTm in series [6] came to 1.06 °C.

Turning to `CN1C(=O)c2ccnc3c(NS(=O)(=O)c4ccc(Cl)cc4F)ccc1c23`, in [5], the Activity was 87.4%. The ΔTm in [6] amounted to 2.31 °C.

As to `CC(Nc1ccc2c3c(cccc13)C(=O)N2C)c1ccccc1` (stereo not drawn), the thermal shift (ΔTm) in series [7] amounted to 0.13 °C; in series [8], 0.55 °C; in [9] it was 4.33 °C; in series [6], 3.15 °C.

On to `CN1C(=O)c2cccc3c(NCc4ccccc4)ccc1c23`, for which the ΔTm in series [7] is 1.92 °C; in series [8], 1.6 °C; in series [9], -0.9 °C; in series [6] it was 2.7 °C.

For the molecule `CN1C(=O)c2cccc3c(NS(=O)(=O)c4c(Cl)cccc4Cl)ccc1c23`, the Activity in series [5] is 91.1%. Further, the ΔTm in [6] stood at 2.75 °C.

For the molecule `CN1C(=O)c2cccc3c(NS(=O)(=O)c4ccccc4)ccc1c23`, the ΔTm is -0.31 °C in series [7], 1.51 °C in [8], 1.93 °C in [9] and 5.72 °C in [6]. The IC50 in series [2] was found to be 0.709 µM; in series [4], 2.62 µM.

In the case of `CN1C(=O)c2cccc3c(S(=O)(=O)Nc4ccccc4)ccc1c23`, the thermal shift (ΔTm) in series [7] was -0.03 °C; in series [8], 0.53 °C; in series [9], 0.47 °C; in series [6], 2.19 °C.

Turning to `CN1C(=O)c2cc(-c3cnn(C4CC4)c3)cc3c(NS(=O)(=O)c4ccc(Cl)cc4F)ccc1c23`, in series [5], the Activity came to 65.2%.

On to `CN1C(=O)c2cccc3c(NC(=O)c4ccccc4)ccc1c23`, for which the thermal shift (ΔTm) in series [7] was 2.17 °C; in series [8], 0.93 °C; in [9], 4.1 °C; in series [6], 2.17 °C.

Source of the values: ChEMBL document CHEMBL4354830, “Discovery of Benzo[cd]indol-2(1H)-ones and Pyrrolo[4,3,2-de]quinolin-2(1H)-ones as Bromodomain and Extra-Terminal Domain (BET) Inhibitors with Selectivity for the First Bromodomain with Potential High Efficiency against Acute Gouty Arthritis” (J Med Chem, 2019).
